Laboratory results: patent US4251528A, “Phthalazin-4-ylacetic acid derivatives” (Imperial Chemical Industries Limited, priority 1977, dated 1981)

Legend:
[1] = biological target: T1, aldose reductase (Rattus norvegicus, UniProt P07943); experiment: streptozotocin diabetic rat test, residual sorbitol levels in tissues; format: in vivo; settings: oral dosing at 10 mg./kg. for 5 days
T1 construct: the eye lenses and sciatic nerves are removed; from tissue; host or cells: rat sciatic nerve (and eye lens), enzyme acting in the living animal
Description: Thus, rats are made diabetic by dosing with streptozotocin and are then dosed daily with the test compound for 5 days. The animals are then killed and the eye lenses and sciatic nerves are removed. After a standard work-up procedure the residual sorbitol levels in each tissue are determined by gas liquid chromatography after conversion to the poly trimethylsilyl derivatives. Inhibition of aldose reductase in vivo is then assessed by comparing the residual sorbitol levels in tissues from the dosed diabetic group of rats with those of an undosed group of diabetic rats and an undosed, normal group of rats.
Alternatively, a modified test may be used in which the streptozotocin induced diabetic rats are dosed daily with test compound for two days. After 2-4 hours from the final dose the animals are killed and the sciatic nerves are removed and assessed for residual sorbitol levels as described above.
Active compounds in either of these tests reduce residual sorbitol levels to levels which are similar to those of normal, undosed rats. […] No overt toxic or other undesirable effects were detected with compounds of formula I at 100 mg./kg. in the above tests.

[2] = system: carageenin induced oedema; format: in vivo, rats; settings: for overt toxicity: rat, in vivo; for inhibition of carageenin induced oedema: rats
Description: The compounds of the invention may therefore in addition be useful in the treatment of painful inflammatory joint diseases such as rheumatoid arthritis, osteoarthritis and ankylosing spondylitis. In this connection it is envisaged that they would be administered primarily orally at a daily dose in the range 10-50 mg./kg.

[3] = biological target: T2, purified aldose reductase isolated from bovine lenses (Bos taurus, UniProt P16116); experiment: in vitro inhibition of purified aldose reductase (reduction of glucose to sorbitol, spectrophotometric); format: biochemical
T2 construct: purified aldose reductase is isolated in known manner from bovine lenses; from tissue; host or cells: bovine lens
Description: Thus, purified aldose reductase is isolated in known manner from bovine lenses. The percentage inhibition of these enzyme's ability in vitro to reduce aldoses to polyhydric alcohols, and particularly to reduce glucose to sorbitol, caused by a test compound is then determined using standard spectrophotometric methods. […] Thus, by way of illustration, 2-(2-fluoro-4-bromobenzyl)-1,2-dihydro-1-oxophthalazin-4-ylacetic acid has a Ki of 2.0×10^-8 M.

SMILES | residual sorbitol level in the sciatic nerve, relative to control undosed diabetic rats [1] | overt toxicity [2] | inhibition of carageenin induced oedema [2] | Ki [3]
O=C(O)Cc1nn(Cc2ccc(Br)cc2F)c(=O)c2ccccc12 [2-(2-fluoro-4-bromobenzyl)-1,2-dihydro-1-oxophthalazin-4-ylacetic acid] | approximately 60% | without any sign of overt toxicity | significant inhibition | 20 nM
O=C(O)Cc1nn(Cc2ccc(Br)c(Cl)c2)c(=O)c2ccccc12 [2-(3-chloro-4-bromobenzyl)-1,2-dihydro-1-oxophthalazin-4-ylacetic acid] |  | without any sign of overt toxicity | significant inhibition | 
